According to patent US4459304A, “Combating pests with 2-anilino-3,5-dinitro-benzotrifluorides” (Bayer Aktiengesellschaft, priority 1977, dated 1984):

Columns and labels:
Format in all cases: in vivo
[1] = system: Ceratitis capitata (eggs); assay: Development-inhibiting action, Ceratitis capitata (eggs); settings: concentration 10 ppm in synthetic feed, eggs until flies slipped
From the text: (§1) Examples 8 and 9, which are given below, show the arthropod development-inhibiting action of the compounds according to the invention without implying a limitation in respect of the breadth of action of these compounds. In the experiments, the morphological changes, such as half-pupated insects, incompletely slipped larvae or caterpillars, defective wings, pupal cuticula in the case of imagos and the like are rated as malformations over the entire stated development of the test insects. The sum of the morphological malformations, together with the insects killed during the sloughing or the metamorphosis, is given in percent of the test insects.
Test insect: Ceratitis capitata (eggs), 20 specimens
Feed: Synthetic feed (carrot powder with yeast powder)
Solvent: 20 parts by weight of acetone
Emulsifier: 5 parts by weight of alkylaryl polyglycol ether
To produce a suitable preparation of active compound, 4 parts by weight of active compound were mixed with the stated amount of solvent, emulsifier and sufficient water to produce a 1% strength mixture which was diluted with water to the desired concentration.
The eggs of the test insects were placed on a dish with synthetic feed, into which the selected concentration of the active compound mixture was incorporated so that the stated amount of active compound in ppm (parts per million) was obtained. The development was observed until the flies slipped.
As a control, synthetic feed mixed only with solvent and emulsifier of the stated concentration was presented.

[2] = system: two-spotted spider mite (Tetranychus urticae); assay: Tetranychus test (resistant), degree of destruction of spider mites on bean plants; settings: 48 h, after 2 days; for mortality at 0.0001 %: active compound concentration 0.0001%; for mortality at 0.001 %: active compound concentration 0.001%
Experimental: (§2) Solvent: 3 parts by weight of dimethylformamide
(§3) Emulsifier: 1 part by weight of alkylaryl polyglycol ether
To produce a suitable preparation of active compound, 1 part by weight of the active compound was mixed with the stated amount of solvent and the stated amount of emulsifier and the concentrate was diluted with water to the desired concentration.
Bean plants (Phaseolus vulgaris) which were heavily infested with the two-spotted spider mite (Tetranychus urticae) in all stages of development were sprayed with the preparation of the active compound until dripping wet.
After the specified periods of time, the degree of destruction was determined as a percentage: 100% meant that all of the spider mites were killed whereas 0% meant that none of the spider mites were killed.

Laphygma exempta (eggs) = assay: Development-inhibiting action, Laphygma exempta (eggs); settings: concentration 10 ppm, up to larvae of third stage
From the text: as §1
Test insect: Laphygma exempta (eggs)
Solvent: 10 parts by weight of acetone
as §3
To produce a suitable preparation of active compound, 2 parts by weight of active compound were mixed with the stated amount of solvent, emulsifier and sufficient water to produce a 1% strength mixture, which was diluted with water to the desired concentration.
Deposited eggs, at the rate of 30 eggs on a filter-paper, were moistened with 1 ml of active compound solution of the stated concentration in ppm (parts per million) and were observed, in plastic boxes, until the young larvae slipped. The young larvae were fed with corn leaves which had been sprayed with the stated concentration of active compound solution on the same day as the eggs.
The development of the test insects was observed up to the larvae of the third stage.
As a control, deposited eggs were treated in the same manner with solvent and emulsifier of the corresponding concentration, and feeding was carried out with corn leaves.

[3] = system: mustard beetle larvae (Phaedon cochleariae); assay: Phaedon larvae test, degree of destruction on cabbage leaves; settings: 72 h, after 3 days; for mortality at 0.001 %: active compound concentration 0.001%; for mortality at 0.01 %: active compound concentration 0.01%
Experimental: as §2
Emulsifier: 1 part by weight of alkylarly polyglycol ether
To produce a suitable preparation of active compound, 1 part by weight of the active compound was mixed with the stated amount of solvent containing the stated amount of emulsifier and the concentrate was diluted with water to the desired concentration.
Cabbage leaves (Brassica oleracea) were sprayed with the preparation of the active compound until dripping wet and were then infested with mustard beetle larvae (Phaedon cochleariae).
After the specified periods of time, the degree of destruction was determined in %: 100% meant that all of the beetle larvae had been killed whereas 0% meant that none of the beetle larvae had been killed.

Structure (SMILES) | inhibition at 10 ppm [1] [%] | mortality at 0.0001 % [2] [%] | mortality at 0.001 % [2] [%] | inhibition at 10 ppm (Laphygma exempta (eggs)) [%] | mortality at 0.001 % [3] [%] | mortality at 0.01 % [3] [%]
O=[N+]([O-])c1cc([N+](=O)[O-])c(Nc2ccc(S(=O)(=O)C(F)(F)F)cc2Cl)c(C(F)(F)F)c1 [Compound 7] | 100 |  |  |  |  | 
O=[N+]([O-])c1cc([N+](=O)[O-])c(Nc2ccc(OC(F)(F)F)cc2)c(C(F)(F)F)c1 [Compound 1, 2-(4-trifluoromethoxy-anilino)-3,5-dinitro-benzotrifluoride] | 100 | 70 | 100 |  |  | 
O=[N+]([O-])c1cc([N+](=O)[O-])c(Nc2cc(SC(F)(F)F)ccc2Cl)c(C(F)(F)F)c1 [Compound 22] |  |  | 100 |  |  | 
CSc1ccc(Nc2c([N+](=O)[O-])cc([N+](=O)[O-])cc2C(F)(F)F)c(C(F)(F)F)c1 [Compound 10] |  | 50 | 98 |  |  | 
O=[N+]([O-])c1cc([N+](=O)[O-])c(Nc2cccc(SC(F)(F)F)c2)c(C(F)(F)F)c1 [Compound 25] |  | 95 | 100 |  |  | 
O=[N+]([O-])c1cc([N+](=O)[O-])c(Nc2c(Cl)cc(S(=O)(=O)C(F)(F)F)cc2Cl)c(C(F)(F)F)c1 [Compound 8] | 100 |  |  |  |  | 
O=[N+]([O-])c1cc([N+](=O)[O-])c(Nc2ccc(OC(F)(F)F)c(Cl)c2)c(C(F)(F)F)c1 [Compound 9] | 100 | 100 | 100 | 100 |  | 
O=[N+]([O-])c1cc([N+](=O)[O-])c(Nc2c(Cl)cccc2Cl)c(C(F)(F)F)c1 [A, reference compound] |  | 0 | 98 | 20 |  | 
O=[N+]([O-])c1cc([N+](=O)[O-])c(Nc2ccc(SC(F)(F)F)cc2)c(C(F)(F)F)c1 [Compound 4] |  | 99 | 100 |  | 50 | 100
O=[N+]([O-])c1cc([N+](=O)[O-])c(Nc2cc(S(=O)(=O)C(F)(F)F)ccc2Cl)c(C(F)(F)F)c1 [Compound 14] |  |  |  |  | 80 | 100
O=[N+]([O-])c1cc([N+](=O)[O-])c(Nc2cccc(OC(F)(F)F)c2)c(C(F)(F)F)c1 [Compound 24] |  | 95 | 100 |  |  | 
O=[N+]([O-])c1cc([N+](=O)[O-])c(Nc2ccc(OC(F)(F)F)cc2Cl)c(C(F)(F)F)c1 [Compound 13, 2-(2-chloro-4-trifluoromethoxy-anilino)-3,5-dinitro-benzotrifluoride] | 100 | 100 | 100 | 100 | 85 | 100
O=[N+]([O-])c1cc([N+](=O)[O-])c(Nc2ccc3c(c2)C(F)(F)OC(F)(F)O3)c(C(F)(F)F)c1 [Compound 2] |  | 100 | 100 |  |  | 
O=[N+]([O-])c1cc([N+](=O)[O-])c(Nc2cc(Cl)ccc2Cl)c(C(F)(F)F)c1 [B, reference compound] |  |  |  |  | 0 | 100
O=[N+]([O-])c1cc([N+](=O)[O-])c(Nc2ccccc2SC(F)(F)F)c(C(F)(F)F)c1 [Compound 21] |  | 50 | 100 |  |  | 
